Measured values: patent publication US6406706B1, “Use of α- and β-santalols major constituents of sandal wood oil, in the treatment of warts, skin blemishes and other viral-induced tumors” (Haque, Inc., priority 1996, dated 2002)

Tested on: warts
Conditions: human, in vivo
Text: In accordance with the method according to this invention, regular use of the α- and β-santalols is meant to mean application of the α- and β-santalols at least once a day to the body surface containing the viral-induced tumors (i.e., warts and Molluscom contagiosum tumors). A further embodiment of the method of this invention comprises washing the affected area of the body with the soap, rinsing the area, placing a small amount of the α- and β-santalols on the tumor to be treated and then gently rubbing to facilitate penetration. […] The subject was advised to rub 1 drop of the santalol mixture after washing their hand with regular soap and water. The subject was to use a loofah sponge to soften the surface of the warts prior to the application of the santalol mixture. […] A subject had three warts on their right and left index fingers for over five years. […] The subject was advised to wash the warts with soap and water using a loofah sponge to soften the surface of the warts, prior to applying one drop of the santalol mixture on the warts and rubbing gently. The treatment was to occur once a day. […] The subject was asked to wash the warts on their face with soap and water and then apply the santalols with a cotton swab. […] After the resolution of the facial warts, the subject's non-facial warts were treated with the santalols.

## α- and β-santalol [santalol mixture]
  local side effects (redness, irritation or pain): no evidence of any local side effects
  local skin irritation (redness, pain): no evidence of any local skin irritation
  skin irritation, burning or redness at sites of application: no evidence
  tolerability of treatment: well tolerated
